Measurements reported in patent US12077503B2, “Substituted cyclic amides and their use as herbicides” (FMC CORPORATION, priority 2015, dated 2024).

What was measured:
Assay type in all cases: in vivo
[1] = system: ivy-leaved morning glory (Ipomoea hederacea); test: Test G Pre-Emergence Protocol; details: Ipomoea, pre-emergence, 312 h, evaluated after 13 days; for pest or weed control at 15.625 g/ha: 15.625 g ai/ha, read-out: Morning-glory, Ivy-leaved damage rating (100=total damage to plant; 0=no damage to plant); for pest or weed control at 62.5 g/ha: 62.5 g ai/ha, 100=total damage to plant, 0=no damage to plant, read-out: plant damage rating, Morningglory, Ivy-leaved; for pest or weed control at 250 g/ha: 250 g ai/ha, read-out: Morningglory, Ivy-leaved damage rating (100=total damage to plant; 0=no damage to plant)
How it was run: (§1)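 Glasshouse pre-emergence test: soil-sown seeds, sprayed after 1 d at 15.625, 62.5 or 250 g/ha. Conditions 24/16° C day/night, 14 h light, 65% humidity, watering twice daily. Rating 13 d post-spray (100 = total damage).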

[2] = system: velvetleaf (Abutilon theophrasti); test: Test G Pre-Emergence Protocol; details: Abutilon theophrasti, pre-emergence, 312 h, evaluated after 13 days; for pest or weed control at 15.625 g/ha: 15.625 g ai/ha; for pest or weed control at 15.625 g/ha / pest or weed control at 250 g/ha: read-out: Velvetleaf damage rating (100=total damage to plant; 0=no damage to plant); for pest or weed control at 62.5 g/ha: 62.5 g ai/ha, 100=total damage to plant, 0=no damage to plant, read-out: plant damage rating, Velvetleaf; for pest or weed control at 250 g/ha: 250 g ai/ha
How it was run: as §1

corn (Zea mays) [3] = test: Test G Pre-Emergence Protocol; details: Zea mays, pre-emergence, 312 h, evaluated after 13 days; for plant injury at 15.625 g/ha: 15.625 g ai/ha; for plant injury at 15.625 g/ha / plant injury at 250 g/ha: read-out: Corn damage rating (100=total damage to plant; 0=no damage to plant); for plant injury at 62.5 g/ha: 62.5 g ai/ha, 100=total damage to plant, 0=no damage to plant, read-out: plant damage rating, Corn; for plant injury at 250 g/ha: 250 g ai/ha
How it was run: as §1

[4] = system: giant foxtail (Setaria faberi); test: Test G Pre-Emergence Protocol; details: Setaria faberi, pre-emergence, 312 h, evaluated after 13 days; for pest or weed control at 15.625 g/ha: 15.625 g ai/ha; for pest or weed control at 15.625 g/ha / pest or weed control at 250 g/ha: read-out: Foxtail, Giant damage rating (100=total damage to plant; 0=no damage to plant); for pest or weed control at 62.5 g/ha: 62.5 g ai/ha, 100=total damage to plant, 0=no damage to plant, read-out: plant damage rating, Foxtail, Giant; for pest or weed control at 250 g/ha: 250 g ai/ha
How it was run: as §1

[5] = system: redroot pigweed (Amaranthus retroflexus); test: Test G Pre-Emergence Protocol; details: Amaranthus retroflexus, pre-emergence, 312 h, evaluated after 13 days; for pest or weed control at 15.625 g/ha: 15.625 g ai/ha; for pest or weed control at 15.625 g/ha / pest or weed control at 250 g/ha: read-out: Pigweed, Redroot damage rating (100=total damage to plant; 0=no damage to plant); for pest or weed control at 62.5 g/ha: 62.5 g ai/ha, 100=total damage to plant, 0=no damage to plant, read-out: plant damage rating, Pigweed, Redroot; for pest or weed control at 250 g/ha: 250 g ai/ha
How it was run: as §1

[6] = system: barnyardgrass (Echinochloa crus-galli); test: Test G Pre-Emergence Protocol; details: Echinochloa crus-galli, pre-emergence, 312 h, evaluated after 13 days; for pest or weed control at 15.625 g/ha: 15.625 g ai/ha, read-out: Barnyard grass damage rating (100=total damage to plant; 0=no damage to plant); for pest or weed control at 62.5 g/ha: 62.5 g ai/ha, 100=total damage to plant, 0=no damage to plant, read-out: plant damage rating, Barnyardgrass; for pest or weed control at 250 g/ha: 250 g ai/ha, read-out: Barnyardgrass damage rating (100=total damage to plant; 0=no damage to plant)
How it was run: as §1

[7] = system: ivy-leaved morning glory (Ipomoea hederacea); test: Test G Post-Emergence Protocol; details: Ipomoea, post-emergence, 312 h; for pest or weed control at 15.625 g/ha: 15.625 g ai/ha, evaluated after 13 days (100=total damage to plant; 0=no damage to plant), read-out: Morningglory, Ivy-leaved damage rating; for pest or weed control at 62.5 g/ha: 62.5 g ai/ha, read-out: Morningglory, Ivy-leaved damage rating (100=total damage to plant; 0=no damage to plant); for pest or weed control at 62.5 g/ha / pest or weed control at 250 g/ha: evaluated after 13 days; for pest or weed control at 250 g/ha: 250 g ai/ha, read-out: damage to plant, Morningglory, Ivy-leaved (100=total damage to plant; 0=no damage to plant)
How it was run: (§2)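 Damage was rated 13 days after treatment from 0 (none) to 100 (plant killed). Compound was applied as a spray at 15.625, 62.5 or 250 g/ha in 50:50 acetone/water containing 0.5% Tween 20, onto 8-day-old potted plants kept in a glasshouse (24/16 °C, 14 h light, 65% humidity).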

[8] = system: velvetleaf (Abutilon theophrasti); test: Test G Post-Emergence Protocol; details: Abutilon theophrasti, post-emergence, 312 h; for pest or weed control at 15.625 g/ha: 15.625 g ai/ha, evaluated after 13 days (100=total damage to plant; 0=no damage to plant), read-out: Velvetleaf damage rating; for pest or weed control at 62.5 g/ha: 62.5 g ai/ha, read-out: Velvetleaf damage rating (100=total damage to plant; 0=no damage to plant); for pest or weed control at 62.5 g/ha / pest or weed control at 250 g/ha: evaluated after 13 days; for pest or weed control at 250 g/ha: 250 g ai/ha, read-out: damage to plant, Velvetleaf (100=total damage to plant; 0=no damage to plant)
How it was run: as §2

corn (Zea mays) [9] = test: Test G Post-Emergence Protocol; details: Zea mays, post-emergence, 312 h; for plant injury at 15.625 g/ha: 15.625 g ai/ha, evaluated after 13 days (100=total damage to plant; 0=no damage to plant), read-out: Corn damage rating; for plant injury at 62.5 g/ha: 62.5 g ai/ha, read-out: Corn damage rating (100=total damage to plant; 0=no damage to plant); for plant injury at 62.5 g/ha / plant injury at 250 g/ha: evaluated after 13 days; for plant injury at 250 g/ha: 250 g ai/ha, read-out: damage to plant, Corn (100=total damage to plant; 0=no damage to plant)
How it was run: as §2

[10] = system: giant foxtail (Setaria faberi); test: Test G Post-Emergence Protocol; details: Setaria faberi, post-emergence, 312 h; for pest or weed control at 15.625 g/ha: 15.625 g ai/ha, evaluated after 13 days (100=total damage to plant; 0=no damage to plant), read-out: Foxtail, Giant damage rating; for pest or weed control at 62.5 g/ha: 62.5 g ai/ha, read-out: Foxtail, Giant damage rating (100=total damage to plant; 0=no damage to plant); for pest or weed control at 62.5 g/ha / pest or weed control at 250 g/ha: evaluated after 13 days; for pest or weed control at 250 g/ha: 250 g ai/ha, read-out: damage to plant, Foxtail, Giant (100=total damage to plant; 0=no damage to plant)
How it was run: as §2

[11] = system: redroot pigweed (Amaranthus retroflexus); test: Test G Post-Emergence Protocol; details: Amaranthus retroflexus, post-emergence, 312 h; for pest or weed control at 15.625 g/ha: 15.625 g ai/ha, evaluated after 13 days (100=total damage to plant; 0=no damage to plant), read-out: Pigweed, Redroot damage rating; for pest or weed control at 62.5 g/ha: 62.5 g ai/ha, read-out: Pigweed, Redroot damage rating (100=total damage to plant; 0=no damage to plant); for pest or weed control at 62.5 g/ha / pest or weed control at 250 g/ha: evaluated after 13 days; for pest or weed control at 250 g/ha: 250 g ai/ha, read-out: damage to plant, Pigweed, Redroot (100=total damage to plant; 0=no damage to plant)
How it was run: as §2

[12] = system: barnyardgrass (Echinochloa crus-galli); test: Test G Post-Emergence Protocol; details: Echinochloa crus-galli, post-emergence, 312 h; for pest or weed control at 15.625 g/ha: 15.625 g ai/ha, evaluated after 13 days (100=total damage to plant; 0=no damage to plant), read-out: Barnyardgrass damage rating; for pest or weed control at 62.5 g/ha: 62.5 g ai/ha, read-out: Barnyardgrass damage rating (100=total damage to plant; 0=no damage to plant); for pest or weed control at 62.5 g/ha / pest or weed control at 250 g/ha: evaluated after 13 days; for pest or weed control at 250 g/ha: 250 g ai/ha, read-out: damage to plant, Barnyardgrass (100=total damage to plant; 0=no damage to plant)
How it was run: as §2

SMILES | pest or weed control at 15.625 g/ha [1] [%] | pest or weed control at 62.5 g/ha [1] [%] | pest or weed control at 250 g/ha [1] [%] | pest or weed control at 15.625 g/ha [2] [%] | pest or weed control at 62.5 g/ha [2] [%] | pest or weed control at 250 g/ha [2] [%] | plant injury at 15.625 g/ha (corn (Zea mays) [3]) [%] | plant injury at 62.5 g/ha (corn (Zea mays) [3]) [%] | plant injury at 250 g/ha (corn (Zea mays) [3]) [%] | pest or weed control at 15.625 g/ha [4] [%] | pest or weed control at 62.5 g/ha [4] [%] | pest or weed control at 250 g/ha [4] [%] | pest or weed control at 15.625 g/ha [5] [%] | pest or weed control at 62.5 g/ha [5] [%] | pest or weed control at 250 g/ha [5] [%] | pest or weed control at 15.625 g/ha [6] [%] | pest or weed control at 62.5 g/ha [6] [%] | pest or weed control at 250 g/ha [6] [%] | pest or weed control at 15.625 g/ha [7] [%] | pest or weed control at 62.5 g/ha [7] [%] | also measured
CN1C[C@@H](c2ccc(C(F)(F)F)cc2)[C@H](C(=O)Nc2cc(C(F)(F)F)n(C)n2)C1=O (racemic) [Compound 1512] | 0 | 0 | 0 | 0 | 0 | 0 | 0 | 0 | 0 | 0 | 0 | 0 | 0 | 0 | 0 | 0 | 0 | 0 | 0 | 0 | pest or weed control at 250 g/ha [7]: 0%; pest or weed control at 15.625 g/ha [8]: 0%; pest or weed control at 62.5 g/ha [8]: 0%; pest or weed control at 250 g/ha [8]: 0%; plant injury at 15.625 g/ha (corn (Zea mays) [9]): 0%; plant injury at 62.5 g/ha (corn (Zea mays) [9]): 0%; plant injury at 250 g/ha (corn (Zea mays) [9]): 0%; pest or weed control at 15.625 g/ha [10]: 0%; pest or weed control at 62.5 g/ha [10]: 0%; pest or weed control at 250 g/ha [10]: 0%; pest or weed control at 15.625 g/ha [11]: 0%; pest or weed control at 62.5 g/ha [11]: 0%; pest or weed control at 250 g/ha [11]: 0%; pest or weed control at 15.625 g/ha [12]: 0%; pest or weed control at 62.5 g/ha [12]: 0%; pest or weed control at 250 g/ha [12]: 0%
Cc1cccc(NC(=O)[C@@H]2C(=O)N(C)C[C@H]2c2ccc(C(F)(F)F)cc2)c1[N+](=O)[O-] (racemic) [Compound 1636] | 0 | 0 | 0 | 0 | 0 | 0 | 0 | 0 | 0 | 0 | 40 | 60 | 0 | 0 | 0 | 0 | 10 | 30 | 0 | 0 | pest or weed control at 250 g/ha [7]: 0%; pest or weed control at 15.625 g/ha [8]: 0%; pest or weed control at 62.5 g/ha [8]: 0%; pest or weed control at 250 g/ha [8]: 0%; plant injury at 15.625 g/ha (corn (Zea mays) [9]): 0%; plant injury at 62.5 g/ha (corn (Zea mays) [9]): 0%; plant injury at 250 g/ha (corn (Zea mays) [9]): 0%; pest or weed control at 15.625 g/ha [10]: 50%; pest or weed control at 62.5 g/ha [10]: 70%; pest or weed control at 250 g/ha [10]: 70%; pest or weed control at 15.625 g/ha [11]: 0%; pest or weed control at 62.5 g/ha [11]: 0%; pest or weed control at 250 g/ha [11]: 0%; pest or weed control at 15.625 g/ha [12]: 10%; pest or weed control at 62.5 g/ha [12]: 50%; pest or weed control at 250 g/ha [12]: 50%
